The record followed here is patent US9624182B2, “Compounds as lysophosphatidic acid receptor antagonists” (Amira Pharmaceuticals, Inc., priority 2009, dated 2017).

Molecules are shown by their SMILES. A value given as a limit tells only on which side of the number the result lay.

The assay has as its target T1, human LPA1 (Homo sapiens, UniProt Q92633).
T1 construct: the full-length cDNA for human LPA1 was obtained by PCR of the reverse transcription reaction; expressed in transfected cells
Kind of assay: LPA1 calcium flux assay. The note with it: CHO cells expressing human LPA1, stimulated with 10 nM LPA; read-out: HLPA1 Ca Flux IC50. The format is cell-based. The procedure, abridged: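 Antagonism measured as block of 10 nM LPA-evoked calcium rise in stable human LPA1-CHO cells. After overnight serum-free culture and 1 h dye loading at 37 °C (buffer with 0.3% fatty-acid-free albumin), compound was added for 30 min at room temperature. Titration curves gave IC50.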

T1 sequence (Q92633 whole entry): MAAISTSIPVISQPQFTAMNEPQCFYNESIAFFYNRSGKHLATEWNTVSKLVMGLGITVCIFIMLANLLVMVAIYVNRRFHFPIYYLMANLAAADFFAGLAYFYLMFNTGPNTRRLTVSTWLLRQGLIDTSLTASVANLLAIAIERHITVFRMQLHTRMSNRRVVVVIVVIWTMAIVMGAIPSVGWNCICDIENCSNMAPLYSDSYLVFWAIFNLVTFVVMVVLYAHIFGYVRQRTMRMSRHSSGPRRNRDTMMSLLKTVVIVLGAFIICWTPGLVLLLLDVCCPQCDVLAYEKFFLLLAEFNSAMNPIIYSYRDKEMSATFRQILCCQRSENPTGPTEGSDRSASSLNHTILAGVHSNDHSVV

For the compound `Cc1noc(-c2ccc(-c3ccc(C4(C(=O)O)CC4)cc3)cc2)c1CS(=O)(=O)CCc1ccccc1` [Compound 1-55, 1-{4′-[3-Methyl-4-(2-phenyl-ethanesulfonylmethyl)-isoxazol-5-yl]-biphenyl-4-yl}-cyclopropanecarboxylic acid], the IC50 is under 300 nM.

On to `Cc1noc(-c2ccc(-c3ccc(C4(C(=O)O)CC4)cc3)cc2)c1CNC(=O)OCc1ccccc1` [Compound 1-57, 1-{4′-[4-(Benzyloxycarbonylamino-methyl)-3-methyl-isoxazol-5-yl]-biphenyl-4-yl}-cyclopropanecarboxylic acid], for which the IC50 was under 300 nM.

Take `Cc1noc(-c2ccc(-c3ccc(C4(C(=O)O)CC4)cc3)cc2)c1CNC(=O)Cc1ccccc1` [Compound 1-58, 1-{4′-[3-Methyl-4-(phenylacetylamino-methyl)-isoxazol-5-yl]-biphenyl-4-yl}-cyclopropanecarboxylic acid]: the IC50 is under 300 nM.

As for `Cc1noc(-c2ccc(-c3ccc(C4(C(=O)O)CC4)cc3)cc2)c1CNC(=O)NCc1ccccc1` [Compound 1-59, 1-{4′-[4-(3-Benzyl-ureidomethyl)-3-methyl-isoxazol-5-yl]-biphenyl-4-yl}-cyclopropanecarboxylic acid], the IC50 was in the range of 1000 to 50000 nM.

Turning to `Cc1noc(-c2ccc(-c3ccc(C4(C(=O)O)CC4)cc3)cc2)c1CNC(=O)CCc1ccccc1` [Compound 1-60, 1-(4′-{3-Methyl-4-[(3-phenyl-propionylamino)-methyl]-isoxazol-5-yl}-biphenyl-4-yl)-cyclopropanecarboxylic acid], the IC50 is 1000 to 50000 nM.

As for `Cc1noc(-c2ccc(-c3ccc(C4(C(=O)O)CC4)cc3)cc2)c1CNS(=O)(=O)Cc1ccccc1Cl` [Compound 1-61, 1-(4′-{4-[(2-Chloro-phenylmethanesulfonylamino)-methyl]-3-methyl-isoxazol-5-yl}-biphenyl-4-yl)-cyclopropanecarboxylic acid], the IC50 lay within 1000 to 50000 nM.

`Cc1noc(-c2ccc(-c3ccccc3C3(C(=O)O)CC3)cc2)c1/C=C\CCc1ccccc1` [Compound 1-62, 1-{4′-[3-Methyl-4-((Z)-4-phenyl-but-1-enyl)-isoxazol-5-yl]-biphenyl-2-yl}-cyclopropanecarboxylic acid]: the IC50 fell in the range of 1000 to 50000 nM.

As to `Cc1noc(-c2ccc(-c3ccccc3C3(C(=O)O)CC3)cc2)c1/C=C/CCc1ccccc1` [Compound 1-63, 1-{4′-[3-Methyl-4-((E)-4-phenyl-but-1-enyl)-isoxazol-5-yl]-biphenyl-2-yl}-cyclopropanecarboxylic acid], the IC50 fell in the range of 1000 to 50000 nM.

In the case of `Cc1noc(-c2ccc(-c3ccc(C4(C(=O)O)CC4)cc3)cc2)c1CNC(=O)C1(c2ccccc2)CC1` [Compound 1-64, 1-[4′-(3-Methyl-4-{[(1-phenyl-cyclopropanecarbonyl)-amino]-methyl}-isoxazol-5-yl)-biphenyl-4-yl]-cyclopropanecarboxylic acid], the IC50 was under 300 nM.

`Cc1noc(-c2ccc(-c3ccc(C4(C(=O)O)CC4)cc3)cc2)c1CC(=O)N[C@@H]1CCc2ccccc21` [Compound 1-65, 1-{4′-[4-(Indan-1-ylcarbamoylmethyl)-3-methyl-isoxazol-5-yl]-biphenyl-4-yl}-cyclopropanecarboxylic acid]: the concentration for half-maximal inhibition (IC50) was over 50000 nM.

Regarding `Cc1noc(-c2ccc(-c3ccc(C4(C(=O)O)CC4)cc3)cc2)c1CC(=O)N1Cc2ccccc2C1` [Compound 1-66, 1-(4′-{4-[2-(1,3-Dihydro-isoindol-2-yl)-2-oxo-ethyl]-3-methyl-isoxazol-5-yl}-biphenyl-4-yl)-cyclopropanecarboxylic acid], the IC50 was over 50000 nM.

As to `Cc1noc(-c2ccc(-c3ccc(C4(C(=O)O)CC4)cc3)cc2)c1CN(C)CCc1ccccc1` [Compound 1-67, 1-(4′-{3-Methyl-4-[(methyl-phenethyl-amino)-methyl]-isoxazol-5-yl}-biphenyl-4-yl)-cyclopropanecarboxylic acid], the IC50 is under 300 nM.

In the case of `CC(=O)N(Cc1c(C)noc1-c1ccc(-c2ccc(C3(C(=O)O)CC3)cc2)cc1)CC(C)c1ccccc1` (stereo not drawn) [Compound 1-70, 1-[4′-(4-{[Acetyl-(2-phenyl-propyl)-amino]-methyl}-3-methyl-isoxazol-5-yl)-biphenyl-4-yl]-cyclopropanecarboxylic acid], the IC50 is under 300 nM.

In the case of `Cc1noc(-c2ccc(-c3ccc(C4(C(=O)O)CC4)cc3)cc2)c1CN(C)C(=O)Cc1ccccc1` [Compound 1-71, 1-(4′-{3-Methyl-4-[(methyl-phenylacetyl-amino)-methyl]-isoxazol-5-yl}-biphenyl-4-yl)-cyclopropanecarboxylic acid], the IC50 fell in the range of 300 to 1000 nM.

With `Cc1noc(-c2ccc(-c3ccc(C4(C(=O)O)CC4)cc3)cc2)c1CN(C)C(=O)C(C)Oc1ccccc1` (stereo not drawn) [Compound 1-72, 1-[4′-(3-Methyl-4-{[methyl-(2-phenoxy-propionyl)-amino]-methyl}-isoxazol-5-yl)-biphenyl-4-yl]-cyclopropanecarboxylic acid], the IC50 is under 300 nM.

Turning to `Cc1noc(-c2ccc(-c3ccc(C4(C(=O)O)CC4)cc3)cc2)c1CN(CC(C)c1ccccc1)C(=O)C1CC1` (stereo not drawn) [Compound 1-73, 1-[4′-(4-{[Cyclopropanecarbonyl-(2-phenyl-propyl)-amino]-methyl}-3-methyl-isoxazol-5-yl)-biphenyl-4-yl]-cyclopropanecarboxylic acid], the IC50 lay within 1000 to 50000 nM.

In the case of `Cc1noc(-c2ccc(-c3ccc(C4(C(=O)O)CC4)cc3)cc2)c1CN(CC(C)c1ccccc1)C(=O)c1ccccc1` (stereo not drawn) [Compound 1-74, 1-[4′-(4-{[Benzoyl-(2-phenyl-propyl)-amino]-methyl}-3-methyl-isoxazol-5-yl)-biphenyl-4-yl]-cyclopropanecarboxylic acid], the IC50 was in the range of 1000 to 50000 nM.

In the case of `Cc1noc(-c2ccc(-c3ccc(C4(C(=O)O)CC4)cc3)cc2)c1CCOCc1ccccn1` [Compound 1-75, 1-(4′-{3-Methyl-4-[2-(pyridin-2-ylmethoxy)-ethyl]-isoxazol-5-yl}-biphenyl-4-yl)-cyclopropanecarboxylic acid], the IC50 lay within 1000 to 50000 nM.

Regarding `Cc1noc(-c2ccc(-c3ccc(C4(C(=O)O)CC4)cc3)cc2)c1CCOCc1cccnc1` [Compound 1-76, 1-(4′-{3-Methyl-4-[2-(pyridin-3-ylmethoxy)-ethyl]-isoxazol-5-yl}-biphenyl-4-yl)-cyclopropanecarboxylic acid], the IC50 is 1000 to 50000 nM.

With `Cc1noc(-c2ccc(-c3ccc(C4(C(=O)O)CC4)cc3)cc2)c1CCOCc1ccncc1` [Compound 1-77, 1-(4′-{3-Methyl-4-[2-(pyridin-4-ylmethoxy)-ethyl]-isoxazol-5-yl}-biphenyl-4-yl)-cyclopropanecarboxylic acid], the IC50 is over 50000 nM.

Regarding `Cc1noc(-c2ccc(-c3ccc(C4(C(=O)O)CC4)cc3)cc2)c1CCC(=O)N(C)c1ccccc1` [Compound 1-82, 1-(4′-{3-Methyl-4-[2-(methyl-phenyl-carbamoyl)-ethyl]-isoxazol-5-yl}-biphenyl-4-yl)-cyclopropanecarboxylic acid], the IC50 is under 300 nM.

Turning to `Cc1noc(-c2ccc(-c3ccc(C4(C(=O)O)CC4)cc3)cc2)c1CC[S+]([O-])Cc1ccccc1` (stereo not drawn) [Compound 1-84, 1-{4′-[3-Methyl-4-(2-phenylmethanesulfinyl-ethyl)-isoxazol-5-yl]-biphenyl-4-yl}-cyclopropanecarboxylic acid], the IC50 fell in the range of 1000 to 50000 nM.

Take `Cc1noc(-c2ccc(-c3ccc(C4(C(=O)O)CC4)cc3)cc2)c1CCS(=O)(=O)Cc1ccccc1` [Compound 1-85, 1-{4′-[3-Methyl-4-(2-phenylmethanesulfonyl-ethyl)-isoxazol-5-yl]-biphenyl-4-yl}-cyclopropanecarboxylic acid]: the IC50 was over 50000 nM.

On to `Cc1noc(-c2ccc(-c3ccc(C4(C(=O)O)CC4)cc3)cc2)c1CN(C)CC(C)c1ccccc1` (stereo not drawn) [Compound 1-87, 1-[4′-(3-Methyl-4-{[methyl-(2-phenyl-propyl)-amino]-methyl}-isoxazol-5-yl)-biphenyl-4-yl]-cyclopropanecarboxylic acid], for which the IC50 is under 300 nM.

In the case of `Cc1noc(-c2ccc(-c3ccc(C4(C(=O)O)CC4)cc3)cc2)c1CC(=O)CCc1ccccc1` [Compound 1-88, 1-{4′-[3-Methyl-4-(2-oxo-4-phenyl-butyl)-isoxazol-5-yl]-biphenyl-4-yl}-cyclopropanecarboxylic acid], the IC50 is under 300 nM.

In the case of `Cc1noc(-c2ccc(-c3ccc(C4(C(=O)O)CC4)cc3)cc2)c1CC(=O)NC1Cc2ccccc2C1` [Compound 1-90, 1-{4′-[4-(Indan-2-ylcarbamoylmethyl)-3-methyl-isoxazol-5-yl]-biphenyl-4-yl}-cyclopropanecarboxylic acid], the IC50 is under 300 nM.

As to `Cc1noc(-c2ccc(-c3ccc(C4(C(=O)O)CC4)cc3)cc2)c1CC(=O)N(C)Cc1ccccc1F` [Compound 1-91, 1-[4′-(4-{[(2-Fluoro-benzyl)-methyl-carbamoyl]-methyl}-3-methyl-isoxazol-5-yl)-biphenyl-4-yl]-cyclopropanecarboxylic acid], the IC50 is under 300 nM.

Regarding `Cc1noc(-c2ccc(-c3ccc(C4(C(=O)O)CC4)cc3)cc2)c1CC(=O)N[C@H]1c2ccccc2C[C@H]1O` [Compound 1-92, 1-(4′-{4-[((1S,2R)-2-Hydroxy-indan-1-ylcarbamoyl)-methyl]-3-methyl-isoxazol-5-yl}-biphenyl-4-yl)-cyclopropanecarboxylic acid], the IC50 was 1000 to 50000 nM.

Take `Cc1noc(-c2ccc(-c3ccc(C4(C(=O)O)CC4)cc3)cc2)c1/C=C\CCc1ccccc1` [Compound 1-94, 1-{4′-[3-Methyl-4-((Z)-4-phenyl-but-1-enyl)-isoxazol-5-yl]-biphenyl-4-yl}-cyclopropanecarboxylic acid]: the IC50 was under 300 nM.

For `Cc1noc(-c2ccc(-c3ccc(C4(C(=O)O)CC4)cc3)cc2)c1/C=C/CCc1ccccc1` [Compound 1-95, 1-{4′-[3-Methyl-4-((E)-4-phenyl-but-1-enyl)-isoxazol-5-yl]-biphenyl-4-yl}-cyclopropanecarboxylic acid], the IC50 was in the range of 300 to 1000 nM.

In general, IC50 refers to the concentration needed to halve the response being measured.
